Measured values as given in PubChem BioAssay (NCI).
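Where inhibition never reached the appropriate level, the endpoint shown equals the highest concentration tested. Otherwise, values were interpolated linearly from a five-concentration, 48-hour dose response in 96-well plates. At the GI50, growth is halved. The concentration for full growth arrest is given as TGI.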

What was measured:
Assay in all cases: growth of human tumour cells (NCI), 48 h
[1] = tested on: HCC-2998 colon
[2] = tested on: SF-539 CNS
[3] = tested on: SNB-19 CNS
[4] = tested on: COLO 205 colon
[5] = tested on: MCF7 breast
[6] = tested on: NCI-H460 lung
[7] = tested on: U251 CNS
[8] = tested on: OVCAR-8 ovarian

Row | Structure (SMILES) | GI50 [1] [µM] | TGI [1] [µM] | GI50 [2] [µM] | TGI [2] [µM] | GI50 [3] [µM] | TGI [3] [µM] | TGI [4] [µM] | TGI [5] [µM] | TGI [6] [µM] | TGI [7] [µM] | TGI [8] [µM]
1 | COc1ccc2c(OCc3nnc4ccc(-c5ccccc5)nn34)ccnc2c1 | > 100 | > 100 | > 100 | > 100 | > 100 | > 100 | – | – | – | – | –
2 | C[C@H]1S[C@H](c2c(Cl)cccc2Cl)N2Cc3ccccc3N=C12 | – | 29.5 | – | 38.1 | – | 23.3 | 25.2 | 42.1 | 32.4 | > 100 | –
3 | COc1cc(-c2ccccc2N)c2cccnc2c1OC | – | – | – | 21.6 | – | 18.6 | 22.1 | 18.3 | 43.4 | 17.7 | –
4 | Cc1ccccc1NC(=O)Cc1csc2[n+]1C(=O)/C(=C/c1ccc([N+](=O)[O-])cc1)S2 | – | > 100 | – | > 100 | – | > 100 | > 100 | > 100 | 88 | > 100 | > 100
5 | CC(C)(C)OC(=O)NCCCCC(NC(=O)c1ccccc1)C(N)=O (stereo unspecified) | – | – | – | > 100 | – | > 100 | > 100 | > 100 | > 100 | > 100 | > 100
6 | CCc1ccccc1NNc1cc(=O)[nH]c(=O)[nH]1 | – | 40.1 | – | 52.2 | – | 43.5 | 34.5 | 39.1 | 52.6 | 31.2 | 51.6
7 | NNC(=O)c1cc(=O)[nH][nH]1 | – | – | – | > 100 | – | > 100 | > 100 | > 100 | > 100 | > 100 | > 100
8 | CCOC(=O)Cc1nc2c(N)ncnc2n1C1OC(COC(C)=O)C(OC(C)=O)C1OC(C)=O (stereo unspecified) | – | > 100 | – | > 100 | – | > 100 | > 100 | > 100 | > 100 | > 100 | > 100
9 | CC(=O)N1CCn2c1nc1cc(Cl)ccc12 | – | > 100 | – | > 100 | – | > 100 | > 100 | > 100 | > 100 | > 100 | > 100
10 | CC1(C)CC(=O)C2=C(C1)OC1=C(CC(C)(C)CC1=O)C2c1ccccc1[N+](=O)[O-] (stereo unspecified) | – | > 100 | – | > 100 | – | > 100 | > 100 | – | > 100 | > 100 | –
11 | CC(=O)N(O)c1ccc(-c2nc3ccccc3s2)cc1 | – | > 100 | – | – | – | > 100 | > 100 | – | > 100 | > 100 | > 100
12 | C[Si](C)(c1ccccc1)[C@H]1CCCC=C1CCNC1c2ccccc2CCc2ccccc21 | – | > 100 | – | > 100 | – | > 100 | > 100 | > 100 | > 100 | > 100 | > 100
13 | COc1cccc(/C=N/[N-]C(N)=O)c1[O-].[Cu+2].[OH3+].c1ccc(-c2ccccn2)nc1 | – | > 100 | – | 67.7 | – | 38.1 | 55.4 | – | > 100 | 31.3 | > 100
14 | C=CCOCn1cc(C)c(=O)[nH]c1=O | – | > 100 | – | > 100 | – | > 100 | > 100 | > 100 | > 100 | – | > 100
15 | CN(C)CCNC(=O)c1cccc2c1Oc1c(cccc1[N+](=O)[O-])O2 | – | 2.62 | – | 4.85 | – | – | 4.28 | > 100 | 2.66 | 10.4 | 16.5
16 | CCOC(=O)C1=C(C)N(c2ccc(OC)cc2)C2(O)C=CC(=O)C3=C(O)c4ccccc4C(=O)C312 (stereo unspecified) | – | – | – | 21.2 | – | 41.1 | 24 | 19.2 | 28 | 23.5 | 81.1
17 | CC(C)(C)N(Cc1ccc2c(c1)OCO2)C(=O)/C=C\Sc1ccccc1 | – | > 100 | – | > 100 | – | > 100 | > 100 | > 100 | – | > 100 | > 100
18 | COc1cc2nc(-c3cccs3)[nH]c(=O)c2cc1OC | – | – | – | > 100 | – | > 100 | > 100 | > 100 | > 100 | > 100 | > 100
19 | CSc1c(C(=O)Nc2ccc(Cl)cc2)c(N)n(N)c(=O)c1C#N | – | > 100 | – | > 100 | – | > 100 | > 100 | > 100 | > 100 | > 100 | > 100
20 | CCN(CC)c1ccc(/C=C/C=C2C(=O)NC(=S)NC2=O)cc1 | – | > 100 | – | 36.6 | – | > 100 | > 100 | > 100 | > 100 | > 80.8 | 42.4
21 | CCn1c(SCC(=O)NNC(=S)NC)nc2ccccc2c1=O | – | > 100 | – | > 100 | – | > 100 | > 100 | > 100 | 45.7 | > 100 | > 100
22 | CC1=NC(=Cc2ccc([N+](=O)[O-])cc2)C(=O)N1n1c(-c2ccccc2)nc2ccccc2c1=O | – | > 100 | – | > 100 | – | > 100 | > 100 | > 100 | – | – | > 100
23 | C/C1=C\C=C(\C(C)C)CC/C(C(=O)O)=C\CC/C(C)=C/CC1 | – | 33.8 | – | 34.8 | – | 51.2 | 50.6 | 34.8 | 34.5 | 30.5 | > 100
24 | CC1CC(=O)N(N(C)C)C(C#N)(C#N)C1(C#N)C#N (stereo unspecified) | – | 34.9 | – | 59.1 | – | > 61.8 | 7.99 | > 100 | – | 42.4 | 45.2
25 | CCOC(=O)C1=COC(C)(CCc2ccccc2)CC1=O (stereo unspecified) | – | – | – | > 100 | – | > 100 | > 100 | > 100 | > 100 | > 100 | > 100
26 | O=C(CCc1ccccc1)ON1C(=S)C(c2ccccc2)(c2ccccc2)N=C1Sc1ccccc1 | – | > 100 | – | > 100 | – | > 100 | > 100 | > 100 | > 100 | – | > 100
